# Laboratory results reported in patent US20120010557A1, “Drug Delivery System for Use in the Treatment of Vascular and Vessel-Related Pathologies” (priority 2009, published 2012).
# Columns and labels:
# [1] = not told; cited from earlier work
# [2] = test system: laser-induced thrombus in hamster dorsal skin fold venules; test: Laser-induced thrombosis in hamster dorsal skin fold venules, intravital fluorescence microscopy; format: in vivo; conditions: infused
# Text: In the research that led to the invention it was shown that, in PWS vascular analogues (hamster dorsal skin fold venules), the photothermal response is ensued by a hemodynamic response, namely the initiation of primary and secondary hemostasis following laser-induced endovascular damage. There is increasing evidence that misfolded proteins and corollary fibrillar structures referred to as amyloid have the propensity to activate platelets (Herczenik E et al. Arterioscler Thromb Vasc Biol. 2007 July; 27(7):1657-65) and the contact activation pathway (Maas C et al. J Clin Invest. 2008 September; 118(9):3208-18). Inasmuch as thermal coagula are comprised of thermally denatured (i.e., misfolded) proteins, these laser-induced lesions may constitute the basis for the initiation of primary and secondary hemostasis in addition to a thermally afflicted endothelium. […]
# FIG. 1: Aggregation of 5,6-carboxyfluorescein (CF)-labeled platelets at the site of laser-induced damage in hamster dorsal skin fold venules as visualized by intravital fluorescence microscopy without (A-F) and with (G-L) priorly infused heparin (Hep). […]
Compound,Increase in bilayer permeability [1],Effect on laser-induced thrombus formation / lesional size [2]
"CC=CC=CC(=O)OCCCCCCCCCC(=O)OC[C@H](COP(=O)([O-])OCC[N+](C)(C)C)OC(=O)CCCCCCCCCOC(=O)C=CC=CC [bis-SorbPC, 1,2-bis[10-(2′,4′-hexadienoloxy)decanonyl]-sn-glycero-3-phosphocholine]",up to 28.000 fold,
heparin,,impeding effect on the lesional size
